From paper PMC8571282 (Nature Communications, 2021)
Values joined by “and” are separate entries in the source; they are usually repeats but may differ in a detail not shown here. Equal values may be shown once. Read-outs that look alike come from different tables or passages of the source.

How the values were obtained:
[1] = tested on: SARS-CoV-2 WA1/2020; format: in vivo, ferret (Mustela putorius furo); conditions: for Transform of Nasal lavage titer, Mean 2 (treated group) / Transform of Nasal lavage titer, Mean Diff. (Vehicle vs. treated): Fig 3b; for Transform of Nasal Lavage RNA copies, Mean 2 (treated group) / Transform of Nasal Lavage RNA copies, Mean Diff. (Vehicle vs. treated): Fig 3f, 5mg/kg b.i.d.
[2] = format: in vivo, ferret (Mustela putorius furo); design: Temperature, Mean Diff. (Vehicle - treated): unit not given here; conditions: for Bodyweight, Mean 2 (treated group) / Bodyweight, Mean Diff. (Vehicle vs. treated): Fig 3e; for Bodyweight, Mean 2 (treated group) / Bodyweight, Mean Diff. (Vehicle vs. treated) / Temperature, Mean 2 (treated group) / Temperature, Mean Diff. (Vehicle vs. treated): 5 mg/kg, b.i.d.; for Temperature, Mean 2 (treated group) / Temperature, Mean Diff. (Vehicle vs. treated): Fig 3d; for Bodyweight, Mean 2 (treated group mean) / Bodyweight, Mean Diff. (Vehicle - treated): Fig 2e; for Bodyweight, Mean 2 (treated group mean) / Bodyweight, Mean Diff. (Vehicle - treated) / Temperature, Mean 2 (treated group mean) / Temperature, Mean Diff. (Vehicle - treated): 20 mg kg-1 b.i.d.; for Bodyweight, Mean 2 (treated group mean) / Temperature, Mean 2 (treated group mean): N 4; for Bodyweight, Mean Diff. (Vehicle - treated) / Temperature, Mean Diff. (Vehicle - treated): Šídák's multiple comparisons test; for Temperature, Mean 2 (treated group mean) / Temperature, Mean Diff. (Vehicle - treated): Fig 2d
[3] = tested on: SARS-CoV-2 WA1/2020; format: in vivo, ferret (Mustela putorius furo); conditions: Fig 2g, 20 mg kg-1 b.i.d.; for Transform of Nasal lavage RNA copies/uL, Mean 2 (treated group mean): N 4; for Transform of Nasal lavage RNA copies/uL, Mean Diff. (Vehicle - treated): Šídák's multiple comparisons test
[4] = Single-dose plasma pharmacokinetics in ferrets; conditions: ferret plasma, analyte 441524 after IV '524, 20 mg/kg, 20 mg/kg; for AUC(0-t) / clearance / Cmax: plasma, iv; for AUC(0-t): AUClast; for clearance: Cl_obs

Structure (SMILES): CC(C)C(=O)OC[C@H]1O[C@@H](n2ccc(NO)nc2=O)[C@H](O)[C@@H]1O [EIDD-2801/molnupiravir, reference compound]
- Transform of Nasal lavage titer, Mean 2 (treated group) ([1]; Day 0, 5 mg/kg, b.i.d.): 0.699
- Transform of Nasal lavage titer, Mean Diff. (Vehicle vs. treated) ([1]; Day 0, 5 mg/kg, b.i.d.): 0
- Transform of Nasal lavage titer, Mean 2 (treated group) ([1]; Day 0.5, 5 mg/kg, b.i.d.): 2.389
- Transform of Nasal lavage titer, Mean Diff. (Vehicle vs. treated) ([1]; Day 0.5, 5 mg/kg, b.i.d.): 0.206
- Transform of Nasal lavage titer, Mean 2 (treated group) ([1]; Day 1, 5 mg/kg, b.i.d.): 2.25
- Transform of Nasal lavage titer, Mean Diff. (Vehicle vs. treated) ([1]; Day 1, 5 mg/kg, b.i.d.): 1.457
- Transform of Nasal lavage titer, Mean 2 (treated group) ([1]; Day 1.5, 5 mg/kg, b.i.d.): 2.025
- Transform of Nasal lavage titer, Mean Diff. (Vehicle vs. treated) ([1]; Day 1.5, 5 mg/kg, b.i.d.): 2.631
- Transform of Nasal lavage titer, Mean 2 (treated group) ([1]; Day 2, 5 mg/kg, b.i.d.): 1.683
- Transform of Nasal lavage titer, Mean Diff. (Vehicle vs. treated) ([1]; Day 2, 5 mg/kg, b.i.d.): 2.587
- Transform of Nasal lavage titer, Mean 2 (treated group) ([1]; Day 2.5, 5 mg/kg, b.i.d.): 2.004
- Transform of Nasal lavage titer, Mean Diff. (Vehicle vs. treated) ([1]; Day 2.5, 5 mg/kg, b.i.d.): 2.196
- Transform of Nasal lavage titer, Mean 2 (treated group) ([1]; Day 3, 5 mg/kg, b.i.d.): 1.551
- Transform of Nasal lavage titer, Mean Diff. (Vehicle vs. treated) ([1]; Day 3, 5 mg/kg, b.i.d.): 2.25
- Transform of Nasal lavage titer, Mean 2 (treated group) ([1]; Day 3.5, 5 mg/kg, b.i.d.): 1.802
- Transform of Nasal lavage titer, Mean Diff. (Vehicle vs. treated) ([1]; Day 3.5, 5 mg/kg, b.i.d.): 2.074
- Transform of Nasal lavage titer, Mean 2 (treated group) ([1]; Day 4, 5 mg/kg, b.i.d.): 1.119
- Transform of Nasal lavage titer, Mean Diff. (Vehicle vs. treated) ([1]; Day 4, 5 mg/kg, b.i.d.): 2.869
- Transform of Nasal Turbinate titer, Mean 2 (treated group) ([1]; Fig 3c, 5 mg/kg, b.i.d.): 2.801
- Transform of Nasal Turbinate titer, Mean Diff. (Vehicle vs. treated) ([1]; Fig 3c, 5 mg/kg, b.i.d.): 3.122
- Transform of Nasal Lavage RNA copies, Mean 2 (treated group) ([1]; Row 1 (time)): 0
- Transform of Nasal Lavage RNA copies, Mean Diff. (Vehicle vs. treated) ([1]; Row 1 (time)): 0
- Transform of Nasal Lavage RNA copies, Mean 2 (treated group) ([1]; Row 2 (time)): 4.936
- Transform of Nasal Lavage RNA copies, Mean Diff. (Vehicle vs. treated) ([1]; Row 2 (time)): 0.6755
- Transform of Nasal Lavage RNA copies, Mean 2 (treated group) ([1]; Row 3 (time)): 4.762
- Transform of Nasal Lavage RNA copies, Mean Diff. (Vehicle vs. treated) ([1]; Row 3 (time)): 1.379
- Transform of Nasal Lavage RNA copies, Mean 2 (treated group) ([1]; Row 4 (time)): 4.913
- Transform of Nasal Lavage RNA copies, Mean Diff. (Vehicle vs. treated) ([1]; Row 4 (time)): 0.7124
- Transform of Nasal Lavage RNA copies, Mean 2 (treated group) ([1]; Row 5 (time)): 4.419
- Transform of Nasal Lavage RNA copies, Mean Diff. (Vehicle vs. treated) ([1]; Row 5 (time)): 1.314
- viral RNA copies in nasal lavages and turbinates vs vehicle ([1]; in vivo): statistically significant mean reduction
- virus burden in the turbinates ([1]; in vivo): approached the limit of detection
- virus shedding in nasal lavages ([1]; in vivo): near-detection level
- Bodyweight, Mean 2 (treated group) ([2]; Row 1 (time)): 100
- Bodyweight, Mean Diff. (Vehicle vs. treated) ([2]; Row 1 (time)): 0
- Bodyweight, Mean 2 (treated group) ([2]; Row 2 (time)): 104
- Bodyweight, Mean Diff. (Vehicle vs. treated) ([2]; Row 2 (time)): -3.257
- Bodyweight, Mean 2 (treated group) ([2]; Row 3 (time)): 103.5
- Bodyweight, Mean Diff. (Vehicle vs. treated) ([2]; Row 3 (time)): -2.179
- Bodyweight, Mean 2 (treated group) ([2]; Row 4 (time)): 103.9
- Bodyweight, Mean Diff. (Vehicle vs. treated) ([2]; Row 4 (time)): -1.728
- Bodyweight, Mean 2 (treated group) ([2]; Row 5 (time)): 105.6
- Bodyweight, Mean Diff. (Vehicle vs. treated) ([2]; Row 5 (time)): -3.149
- Temperature, Mean 2 (treated group) ([2]; Row 1 (time)): 38.55
- Temperature, Mean Diff. (Vehicle vs. treated) ([2]; Row 1 (time)): 0.6
- Temperature, Mean 2 (treated group) ([2]; Row 2 (time)): 38.7
- Temperature, Mean Diff. (Vehicle vs. treated) ([2]; Row 2 (time)): -0.025
- Temperature, Mean 2 (treated group) ([2]; Row 3 (time)): 38.58
- Temperature, Mean Diff. (Vehicle vs. treated) ([2]; Row 3 (time)): 0.1
- Temperature, Mean 2 (treated group) ([2]; Row 4 (time)): 38.6
- Temperature, Mean Diff. (Vehicle vs. treated) ([2]; Row 4 (time)): 0.05
- Temperature, Mean 2 (treated group) ([2]; Row 5 (time)): 38.53
- Temperature, Mean Diff. (Vehicle vs. treated) ([2]; Row 5 (time)): 0.05
- Body temperature (Fig 3D) ([2]; in vivo): 39.3 and 38.7 and 38.2 and 38.6 and 38.9 and 38.4 and 37.8

Structure (SMILES): CC(C)C(=O)OCC1OC(C#N)(c2ccc3c(N)ncnn23)C(OC(=O)C(C)C)C1OC(=O)C(C)C (stereo not shown) [GS-62-1763]
- Transform of Nasal lavage RNA copies/uL, Mean 2 (treated group mean) ([3]; Row 1 (time)): 0
- Transform of Nasal lavage RNA copies/uL, Mean Diff. (Vehicle - treated) ([3]; Row 1 (time)): 0
- Transform of Nasal lavage RNA copies/uL, Mean 2 (treated group mean) ([3]; Row 2 (time)): 3.525
- Transform of Nasal lavage RNA copies/uL, Mean Diff. (Vehicle - treated) ([3]; Row 2 (time)): 1.479
- Transform of Nasal lavage RNA copies/uL, Mean 2 (treated group mean) ([3]; Row 3 (time)): 3.436
- Transform of Nasal lavage RNA copies/uL, Mean Diff. (Vehicle - treated) ([3]; Row 3 (time)): 2.713
- Transform of Nasal lavage RNA copies/uL, Mean 2 (treated group mean) ([3]; Row 4 (time)): 3.353
- Transform of Nasal lavage RNA copies/uL, Mean Diff. (Vehicle - treated) ([3]; Row 4 (time)): 2.648
- Transform of Nasal lavage RNA copies/uL, Mean 2 (treated group mean) ([3]; Row 5 (time)): 3.502
- Transform of Nasal lavage RNA copies/uL, Mean Diff. (Vehicle - treated) ([3]; Row 5 (time)): 2.475
- Bodyweight, Mean 2 (treated group mean) ([2]; Row 1 (time)): 100
- Bodyweight, Mean Diff. (Vehicle - treated) ([2]; Row 1 (time)): 0
- Bodyweight, Mean 2 (treated group mean) ([2]; Row 2 (time)): 102.1
- Bodyweight, Mean Diff. (Vehicle - treated) ([2]; Row 2 (time)): -0.8462
- Bodyweight, Mean 2 (treated group mean) ([2]; Row 3 (time)): 104.7
- Bodyweight, Mean Diff. (Vehicle - treated) ([2]; Row 3 (time)): -2.64
- Bodyweight, Mean 2 (treated group mean) ([2]; Row 4 (time)): 105.7
- Bodyweight, Mean Diff. (Vehicle - treated) ([2]; Row 4 (time)): -3.357
- Bodyweight, Mean 2 (treated group mean) ([2]; Row 5 (time)): 105.5
- Bodyweight, Mean Diff. (Vehicle - treated) ([2]; Row 5 (time)): -2.899
- Temperature, Mean 2 (treated group mean) ([2]; Row 1 (time)): 38.58
- Temperature, Mean Diff. (Vehicle - treated) ([2]; Row 1 (time)): -0.25
- Temperature, Mean 2 (treated group mean) ([2]; Row 2 (time)): 38.45
- Temperature, Mean Diff. (Vehicle - treated) ([2]; Row 2 (time)): 0.275
- Temperature, Mean 2 (treated group mean) ([2]; Row 3 (time)): 38.68
- Temperature, Mean Diff. (Vehicle - treated) ([2]; Row 3 (time)): 0.675
- Temperature, Mean 2 (treated group mean) ([2]; Row 4 (time)): 38.4
- Temperature, Mean Diff. (Vehicle - treated) ([2]; Row 4 (time)): 0.85
- Temperature, Mean 2 (treated group mean) ([2]; Row 5 (time)): 38.33
- Temperature, Mean Diff. (Vehicle - treated) ([2]; Row 5 (time)): 0.6

Structure (SMILES): N#CC1(c2ccc3c(N)ncnn23)OC(CO)C(O)C1O (stereo not shown) [compound 441524]
- Cl_obs ([4]; individual animals F0201-F0203): 12 mL/min/kg and 17.3 mL/min/kg
- AUC(0-t) ([4]; Mean): 81.1 µM·h
- AUC(0-t) ([4]; individual animals F0201-F0203): 82 µM·h
- clearance ([4]; Mean): 14.4 mL/min/kg
- clearance ([4]; individual animals F0201-F0203): 13.9 mL/min/kg
- Cmax ([4]; Mean): 54.2 µM
- Cmax ([4]; individual animals F0201-F0203): 62.4 µM
